The text below walks through data of PMC11340618 (iScience, 2024).

≈ marks a conversion by molar mass, not a printed value. Where “and” joins values, the source holds several entries; their conditions need not be identical. Identical values can stand only once. Like-named read-outs stand apart in the source and are kept apart here.

In data set [1] the test system is intracellular M. tuberculosis H37Rv (WT). The experiment in a line: microbe, parasite or virus in culture. It counts as cell-based. The settings on record: Mycobacterium tuberculosis, 72 h.
The subject of data set [2] is intracellular M. tuberculosis ΔptpA. The data set is classed as cell-based, Mycobacterium tuberculosis.
Another data set has as its target T1, GSK3β (Homo sapiens, UniProt P49841).
T1 construct: purchased SignalChem (Richmond, BC, Canada), contract assay service
The experiment in a line: in vitro inhibition of GSK3β, ADP-Glo Kinase assay (SignalChem). It counts as biochemical. Conditions: normalized to negative control. The method, then:
Samples of three GSK3 inhibitors (P-4423632, P-0717632, P-3817632) were sent to SignalChem (Richmond, BC, Canada) where a compound selectivity assay was performed and the IC50 values of the inhibitors were determined.
Figure S3: in vitro inhibition of GSK3β by selected inhibitors, related to Star Methods: Determination of IC50 of GSK3 inhibitors. GSK3β activity was measured using the ADP-GloTM Kinase assay and normalized to the negative control (100% kinase activity). Curve was fit using non-linear regression analysis calculated with GraphPad Prism software.
(also on this page, place not known: % Inhibition GSK3β % Inhibition GSK3β % Inhibition GSK3β IC50)
A general note: ADP-Glo first removes unused ATP, then detects ADP through luciferase.

Data set [3] deals with Mycobacterium tuberculosis H37Rv in THP-1. The experiment in a line: Minimal inhibitory concentrations of P-4423632 against Mtb H37Rv in THP-1 (Table S3). It counts as cell-based. An excerpt:
Table S3. Minimal inhibitory concentrations of P-4423632 against Mycobacterium tuberculosis H37Rv in cell lines and in broth, and inhibitory concentrations (toxicity level) to THP-1 cells. Related to Figure 2.

For data set [4], the system named is Mycobacterium tuberculosis H37Rv in hMDM. Nature of the data set: microbe, parasite or virus in culture. The data set is classed as cell-based.
Data set [5] can be described thus: Cytotoxicity analysis (MTT assay). It counts as cell-based. Conditions: human, differentiated THP-1 cells, toxicity level to THP-1 cells. The method, then:
The MTT assay was performed as described previously.[19] […] At the 69.5-hour time point, 25 μL of 3-(4,5-dimethylthiazol-2-yl)-2,5-diphenyltetrazolium bromide (MTT) solution were added to each well. […] The absorbance of each well was read at 570 nm and these values were used to calculate the percentage of viable cells.

A further data set has as its system Acinetobacter baumannii. Nature of the data set: Disk assay, in vitro activity. It counts as cell-based.
A further data set has as its system Bacillus subtilis. Nature of the data set: Disk assay, in vitro activity. The data set is classed as cell-based.
The subject of a further data set is Escherichia coli. The experiment in a line: Disk assay, in vitro activity. The data set is classed as cell-based.
The next data set relates to Enterococcus faecalis. Nature of the data set: Disk assay, in vitro activity. Conditions: up to 25 μg of P-4423632. The data set is classed as cell-based.
Another data set deals with Moraxella catarrhalis. The experiment in a line: Disk assay, in vitro activity. It counts as cell-based.
A further data set has as its system Pseudomonas aeruginosa. The experiment in a line: Disk assay, in vitro activity. The data set is classed as cell-based.
The subject of a further data set is Staphylococcus aureus. The experiment in a line: Disk assay, in vitro activity. It counts as cell-based.
The subject of the next data set is MRSA. Nature of the data set: Disk assay, in vitro activity. The data set is classed as cell-based. The settings on record: up to 25 μg of P-4423632.
The test system of data set [6] is Staphylococcus epidermidis. Nature of the data set: Disk assay, in vitro activity. The data set is classed as cell-based.
In a further data set the test system is Salmonella typhimurium. The experiment in a line: Disk assay, in vitro activity. It counts as cell-based.
In the next data set the test system is Mycobacterium marinum. The experiment in a line: Disk assay, in vitro activity. It counts as cell-based. Conditions: up to 25 μg of P-4423632.
The test system of data set [7] is Mycobacterium intracellulare. The experiment in a line: Disk assay, in vitro activity. The data set is classed as cell-based.
A further data set has as its system Mycobacterium bovis BCG. It counts as cell-based.
The subject of a further data set is Mycobacterium smegmatis. The data set is classed as cell-based. The settings on record: up to 100 μg of P-4423632.
The next data set concerns Mycobacterium abscessus. The data set is classed as cell-based. The settings on record: up to 100 μg of P-4423632.
The subject of data set [8] is Mycobacterium tuberculosis H37Rv auxotroph, mc2 6206. The data set is classed as cell-based.
The test system of the next data set is M. avium avium. The experiment in a line: Disk assay, in vitro activity. The data set is classed as cell-based.
Data set [9] has as its system panel of bacteria, including Mtb. The data set is classed as cell-based.
The subject of data set [10] is intracellular Mtb in GSK3α KO / GSK3β KO THP-1 cells. The data set is classed as cell-based, Mycobacterium tuberculosis. Conditions: 10 μM P-4423632, 72 h.
The test system of the next data set is THP-1 cells. The experiment in a line: Annexin V FITC apoptosis assay, flow cytometry. It counts as cell-based, human. On the technique in general: Flow cytometry measures light scatter and fluorescence of single cells or particles in a stream.
Data set [11] concerns Campylobacter jejuni in Caco-2 cells. The experiment in a line: Caco-2 infection with C. jejuni, CFU. The settings on record: two-fold serial dilutions, 24h. The data set is classed as cell-based. The procedure: Isolated colonies from overnight culture grown on Muller -Hinton (MH) plates in microaerophilic conditions were inoculated into liquid MH media and grown overnight. Bacteria were pelleted by centrifugation and resuspended in DMEM media. The bacteria were then added at an MOI of 100-400 to Caco-2 cells in 24-well plates at 10^5 cells per well. After 2 h of incubation, infected cells were washed with fresh DMEM and incubated an additional 2 h with 100-200 μg/ml gentamycin followed by the addition of test compounds and incubation for 24 h. After incubation, cells were washed with fresh DMEM and lysed by osmotic shock with sterile […] and passed through a 27G needle with a syringe. The lysate was serially diluted and plated in MH agar using the pouring plate method. CFU were then counted after a 24 - 48 h incubation. To assess cell survival, a duplicate of the previous conditions was used to undergo MTT assay or cell count with the CX5 using DAPI staining. […]
intracellular bacteria. Related to Star Methods describing C. Jejuni and S. enterica infections. […] Percent inhibition was calculated by subtracting CFU values as a percentage of the untreated DMSO control (plotted at 0.1 µM) from 100%. […] Curve was fit using non-linear regression analysis of log (inhibitor) vs. response (variable slope) calculated with GraphPad Prism 10. […]

Data set [12] has as its system Salmonella enterica serovar Typhimurium in THP-1 cells. Nature of the data set: THP-1 infection with S. typhimurium, high content screening. The data set is classed as cell-based. Conditions: MOI 10:1, 24h.
Data set [13] has as its system GSK3α Y279 / GSK3β Y216 phosphorylation. The experiment in a line: Western blot of Y279 - Y216 phosphorylation status of GSK3α and GSK3β in THP-1 cells. It counts as cell-based, human. Background: In western blotting, separated proteins are transferred to a membrane and probed.
Data set [14] relates to intracellular Mtb H37Rv in THP-1 cells. The experiment in a line: Dose dependent activity against intracellular Mtb, high content analysis of fluorescent Mtb (Fig 3E). The data set is classed as cell-based, Mycobacterium tuberculosis.
Data set [15] deals with Mycobacterium tuberculosis H37Rv in broth. The experiment in a line: In-broth activity analysis (resazurin assay).
In another data set the test system is Mtb infection. On the set-up: method as in PMID 35095838. Conditions: GSK3α/β inhibition ref 56; cited from earlier work.

One may read the IC50 as the concentration that inhibits the measured activity by half. The term IC90 denotes the point of the concentration-response curve where the effect stands at 90%.

T1 sequence (P49841 whole entry): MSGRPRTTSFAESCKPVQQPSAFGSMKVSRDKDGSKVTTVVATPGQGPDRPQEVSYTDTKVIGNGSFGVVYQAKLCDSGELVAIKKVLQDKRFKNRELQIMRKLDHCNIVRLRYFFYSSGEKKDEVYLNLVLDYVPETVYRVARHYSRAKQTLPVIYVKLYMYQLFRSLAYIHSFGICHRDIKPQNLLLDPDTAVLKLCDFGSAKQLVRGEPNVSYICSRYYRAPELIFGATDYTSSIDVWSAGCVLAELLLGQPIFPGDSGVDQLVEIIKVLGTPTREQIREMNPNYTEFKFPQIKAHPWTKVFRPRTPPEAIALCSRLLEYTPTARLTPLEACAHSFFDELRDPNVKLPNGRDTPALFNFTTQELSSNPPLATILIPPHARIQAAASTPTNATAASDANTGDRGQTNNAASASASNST

As to `CSc1ccc(-n2cnc3ccc(-c4nnc(CCc5cccc(C#N)c5)o4)cc32)cc1` [P-0717632], the MIC50 in data set [1] was 0.4 µM (≈ 0.175 µg/mL). In addition, in data set [2], the “MIC25 ΔptpA” value was greater than 25 µM and the “MIC50 ΔptpA” value is reported as greater than 25 µM.
Turning to `CSc1ccc(-n2cnc3ccc(-c4nnc(CCc5cccc(C(F)(F)F)c5)o4)cc32)cc1` [P-3817632], at GSK3β, the IC50 is 0.28 µM. Also, in data set [1], the MIC25 is 0.6 µM (≈ 0.288 µg/mL) and the MIC50 was found to be 2 µM (≈ 0.961 µg/mL). Moreover, in [2], the “MIC25 ΔptpA” value is recorded as 13.8 µM (≈ 6.63 µg/mL) and the “MIC50 ΔptpA” value was greater than 25 µM.
For `O=C(NCc1ccccn1)Nc1cc(N2CC(CCc3ccccc3)CC2=O)ccn1` (stereo not shown) [P-4423632], the IC50 was 0.748 µM at GSK3β; 2.31e-06 M in [3] (H37RV, THP-1, read-out: (M)IC50); 4.17 µM in [4] (Mycobacterium tuberculosis, Macrophage, Mtb H37Rv in hMDM); 3.88e-05 M in data set [15] (read-out: (M)IC50, Mtb H37Rv in broth). For the same compound, in [1], the MIC25 was 2.9 µM (≈ 1.2 µg/mL). This compound also came in with an MIC50 in data set [1] of 6.4 µM (≈ 2.66 µg/mL). For the same compound, the “MIC25 ΔptpA” value in data set [2] is reported as greater than 25 µM. The “MIC50 ΔptpA” value in data set [2] was greater than 25 µM. Moreover, the IC90 in data set [3] (Mtb H37Rv in THP-1) was determined as 16 µM; in data set [15] (read-out: (M)IC90, Mtb H37Rv in broth) it was 4.33e-05 M. Further, the “effect on Mtb intracellular replication in hMDMs” value in [4] (hMDMs combined from two donors, 72 h) was “restricted Mtb intracellular replication in a dose dependent manner”. The IC50 at 72 h in [5] (read-out: (M)IC50, cytotoxicity in THP1) was determined as 7.78e-05 M. Further, the IC90 at 72 h in [5] (read-out: (M)IC90, cytotoxicity in THP1) worked out at 0.000115 M. Further, the Disk assay susceptibility entry with Acinetobacter baumannii (up to 25 μg of P-4423632), in the data set with Bacillus subtilis (up to 25 μg of P-4423632), with Escherichia coli (up to 25 μg of P-4423632), with Enterococcus faecalis, with Moraxella catarrhalis (up to 25 μg of P-4423632) and in the data set with Pseudomonas aeruginosa (up to 25 μg of P-4423632) was “R” throughout. In addition, the Disk assay susceptibility result (with Staphylococcus aureus (up to 25 μg of P-4423632); in the data set with MRSA; in [6] (up to 25 μg of P-4423632); in the data set with Salmonella typhimurium (up to 25 μg of P-4423632); with Mycobacterium marinum; in [7] (up to 25 μg of P-4423632)) was “R” throughout. Also, the Disk assay susceptibility result (in the data set on Mycobacterium bovis BCG (up to 25 μg of P-4423632); with Mycobacterium smegmatis; with Mycobacterium abscessus; in data set [8]; with M. avium avium (up to 25 μg of P-4423632)) was “R” throughout. Moreover, in data set [9], the “activity in disk-diffusion antibiotics susceptibility assay” value was “inactive”. In addition, the “Reduction % of intracellular Mtb survival vs untreated counterpart” value in data set [10] (GSK3α KO THP-1 cells) is “over 75%”; in [10] (GSK3β KO THP-1 cells), roughly 50%. Also, the Apoptotic cells with THP-1 cells is 16.31% and 30.57% and 31.59%. For the same compound, the Dead cells in the data set with THP-1 cells is 9.32% and 6.98%. For the same compound, in the data set with THP-1 cells, the Live cells is 67.62% and 58.79% and 58.44%. Also, in the data set with THP-1 cells, the “effect on apoptosis of infected THP-1 cells” value was “upregulation of apoptosis”. Besides, the “activity against intracellular C. jejuni” value in data set [11] is on record as “active in a dose-dependent manner”. Further, the “activity against intracellular S. Typhimurium” value in data set [12] was “active in a dose-dependent manner”. Also, the “phosphorylation of GSK3α Y279 and GSK3β Y216” value in [13] is “reduced phosphorylation of both Y279 and Y216”. In addition, the “dose-dependent activity against intracellular Mtb” value in data set [14] is listed as “dose-dependent activity”. Further, in the data set with hMDM, the “effect on host cell viability” value is “no effect on host cell viability”. In data set [15] (in broth vs intracellular), the “in-broth MIC50 compared to intracellular activity” value is listed as “over 10 fold”.
Consider `Cc1nnc(-c2ccc3occ(-c4ccc([S+](C)[O-])c(OC(F)(F)F)c4)c3c2)o1` (stereo not shown) [P-5782442], for which, in data set [1], the MIC25 was found to be 1.6 µM (≈ 0.676 µg/mL) and the MIC50 was greater than 25 µM. In addition, in data set [2], the “MIC25 ΔptpA” value was greater than 25 µM and the “MIC50 ΔptpA” value is reported as greater than 25 µM.
On to `Cn1cc(C2=C(c3ccc(Cl)cc3Cl)C(=O)NC2=O)c2ccccc21` [SB216763], for which the “effect on Mtb infection” value in the data set with Mtb infection is recorded as “increased Mtb infection”.
Consider Gentamycin [reference compound], for which the “Control (mm), disk assay clearing” value with Acinetobacter baumannii (Gen 10 μg) was found to be 20 mm; in the data set with Bacillus subtilis (Gen 10 μg) it was 24 mm; in the data set on Escherichia coli (Gen 10 μg) it was 18 mm; in the data set on Moraxella catarrhalis (Gen 10 μg) it was 30 mm; with Pseudomonas aeruginosa (Gen 10 μg), 21 mm; in the data set on Staphylococcus aureus (Gen 10 μg) it was 25 mm. In addition, the “Control (mm), disk assay clearing” value was determined as 26 mm in data set [6] (Gen 10 μg); 20 mm in the data set on Salmonella typhimurium (Gen 10 μg); 20 mm in data set [7] (Gen 12.5 μg); 30 mm with Mycobacterium bovis BCG (Gen 10 μg); 21 mm with M. avium avium (Gen 12.5 μg).
